According to patent US7678390B2, “Carbon monoxide as a biomarker and therapeutic agent” (priority 1999, dated 2010):

Test system: RAW 264.7 macrophages
Test: LPS-induced cytokine production in macrophages (ELISA, Western)
Type: cell-based, mouse
Settings: for TNF-α: RAW 264.7 macrophages
Text: Animals. Male C57BL/6 and IL-10 (−/−) mice were purchased from Jackson Laboratory (Bar Harbor, Me.), and allowed to acclimate for one week with rodent chow and water ad libitum. The MKK (−/−) mice were generated as previously described [Lu, et al., EMBO J. 18:1845-1857 (1999)]. Wild type littermates were used as controls. All animals were housed in accordance with guidelines from the American Association for Laboratory Animal Care and Research Protocols and were approved by the Animal Care and Use Committee of Yale University School of Medicine. Reagents. All reagents were purchased from Sigma Chemical Co. (St Louis, Mo.) unless specified otherwise. Plasmid Construct. Plasmid pSFFV/HO-1 was constructed by insertion of the rat HO-1 cDNA [Shibahara, et al., Proc. Natl. Acad. Sci. USA. 82: 7865-7869 (1985)] downstream of the Friend spleen focus-forming virus 5′ long-terminal repeat in the mammalian expression vector pSFFV/neo [Fuhlbrigge, et al, Proc. Natl. Acad. Sci. USA. 85: 5649-5653 (1988)] (kindly provided by Stanley Korsmeyer). Transfection. Stable transfections were carried out by the calcium phosphate precipitation technique as previously described [Alam, J., J. Biol. Chem. 269: 25049-25056 (1994)]. Briefly, RAW cells were plated (1×10^6/10 cm plate) and 16 h later, transfected with […] of pSFFV/neo or pSFFV/HO-1. Cells were exposed to the DNA-CaPO4 precipitate for 6 h, shocked by a 1 min treatment with glycerol in phosphate-buffered saline and cultured for an additional 24 h in complete medium before addition of G418. Transfectants were selected over a 3-week period in the presence of G418 (up to […]) and individual clones were isolated by limited dilution. Cell Culture Experimentation. RAW 264.7 mouse peritoneal macrophages were purchased from […] (Rockville, Md.) and primary culture of rat pulmonary vascular smooth muscle cells were harvested from male Sprague Dawley rats (250-300 g) as previously described [Gunther, et al., J. Cell. Biol. 92: 289-298 (1982).]. Both cell types were grown in DMEM containing 10% FBS and gentamicin ([…]) in a humidified atmosphere of 5% CO2/balanced air or 250 ppm CO/5% CO2/balanced air. After a 2 h pretreatment with either CO or air, LPS ([…]) or sterile saline was added to the culture media and the culture plates were returned to the chamber(s). At various time points, cell plates were removed from the chamber to collect media and/or cells for Western analysis. CO Exposures. Mice or macrophages were exposed to compressed air or 250 ppm CO. For cell culture experiments, 5% CO2 was also present for buffering requirements. CO at a concentration of 1% (10,000 ppm) in compressed air was mixed with compressed air with or without CO2 in a stainless steel mixing cylinder before delivery into the exposure chamber. Flow into the 3.70-ft^2 plexiglass animal chamber was maintained at 12 L/min and into the 1.2 ft^2 cell culture chamber at a flow of 2 L/min. The cell culture chamber was humidified and maintained at 37° C. A CO analyzer (Interscan, Chatsworth, Calif.) was used to measure CO levels continuously in the chambers. Gas samples were taken by the analyzer through a port in the top of the chambers at a rate of 1 L/min and analyzed by electrochemical detection, with a sensitivity of 10-600 ppm. Concentration levels were measured hourly and there were no fluctuations in the CO concentrations once the chamber had equilibrated (approximately 5 min). Animal Experimentation. Mice were prebled from the retroorbital sinus (0.25 ml) and then exposed to CO (250 ppm) or room air for 1 h prior to administration of LPS (1 mg/kg, i.p.), E. coli serotype O127:B8. 1 and 16 h thereafter, they were removed from the exposure apparatus individually and a blood sample was obtained via the retroorbital sinus. After the blood collection, the mice were immediately returned to the exposure chamber. […]

Compound: Nc1nc2c(nc(Br)n2[C@@H]2O[C@@H]3COP(=O)(O)O[C@H]3[C@H]2O)c(=O)[nH]1 [8-Br-cGMP, reference compound]
- TNF-α (with LPS): 530 ± 35 pg/mL
- TNF-α (without LPS): 18 ± 6 pg/mL
- effect on LPS-induced TNF-α production (added to macrophage culture followed by LPS): no effect
